The record followed here is US12685726B2, “Sulfoximines as inhibitors of NaV1.8” (Gruenenthal GmbH, priority 2022, dated 2026).

The target in this test is T1, human NaV 1.8 (Homo sapiens, UniProt Q9Y5Y9).
T1 construct: expressed in transfected cells; host or cells: HEK (recombinant cell line)
As to the kind of experiment: Automated whole-cell patch clamp (Qube384) voltage-clamp recordings of sodium currents in HEK-NaV1.8 cell line. The format is cell-based. Particulars: read-out: Potency category (human NaV 1.8 IC50). The method in brief: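 HEK cells expressing NaV1.8 with b3, whole-cell automated voltage clamp at room temperature or 19° C.; CsF-based internal, pH 7.4 external. State-dependent (−120 mV, V1/2 4 s, −10 mV test pulses) and 10/20 Hz 40-pulse protocols; ~12 min compound, vehicle-corrected, IC50 by 4-parameter logistic fit.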

T1 sequence (Q9Y5Y9 whole entry): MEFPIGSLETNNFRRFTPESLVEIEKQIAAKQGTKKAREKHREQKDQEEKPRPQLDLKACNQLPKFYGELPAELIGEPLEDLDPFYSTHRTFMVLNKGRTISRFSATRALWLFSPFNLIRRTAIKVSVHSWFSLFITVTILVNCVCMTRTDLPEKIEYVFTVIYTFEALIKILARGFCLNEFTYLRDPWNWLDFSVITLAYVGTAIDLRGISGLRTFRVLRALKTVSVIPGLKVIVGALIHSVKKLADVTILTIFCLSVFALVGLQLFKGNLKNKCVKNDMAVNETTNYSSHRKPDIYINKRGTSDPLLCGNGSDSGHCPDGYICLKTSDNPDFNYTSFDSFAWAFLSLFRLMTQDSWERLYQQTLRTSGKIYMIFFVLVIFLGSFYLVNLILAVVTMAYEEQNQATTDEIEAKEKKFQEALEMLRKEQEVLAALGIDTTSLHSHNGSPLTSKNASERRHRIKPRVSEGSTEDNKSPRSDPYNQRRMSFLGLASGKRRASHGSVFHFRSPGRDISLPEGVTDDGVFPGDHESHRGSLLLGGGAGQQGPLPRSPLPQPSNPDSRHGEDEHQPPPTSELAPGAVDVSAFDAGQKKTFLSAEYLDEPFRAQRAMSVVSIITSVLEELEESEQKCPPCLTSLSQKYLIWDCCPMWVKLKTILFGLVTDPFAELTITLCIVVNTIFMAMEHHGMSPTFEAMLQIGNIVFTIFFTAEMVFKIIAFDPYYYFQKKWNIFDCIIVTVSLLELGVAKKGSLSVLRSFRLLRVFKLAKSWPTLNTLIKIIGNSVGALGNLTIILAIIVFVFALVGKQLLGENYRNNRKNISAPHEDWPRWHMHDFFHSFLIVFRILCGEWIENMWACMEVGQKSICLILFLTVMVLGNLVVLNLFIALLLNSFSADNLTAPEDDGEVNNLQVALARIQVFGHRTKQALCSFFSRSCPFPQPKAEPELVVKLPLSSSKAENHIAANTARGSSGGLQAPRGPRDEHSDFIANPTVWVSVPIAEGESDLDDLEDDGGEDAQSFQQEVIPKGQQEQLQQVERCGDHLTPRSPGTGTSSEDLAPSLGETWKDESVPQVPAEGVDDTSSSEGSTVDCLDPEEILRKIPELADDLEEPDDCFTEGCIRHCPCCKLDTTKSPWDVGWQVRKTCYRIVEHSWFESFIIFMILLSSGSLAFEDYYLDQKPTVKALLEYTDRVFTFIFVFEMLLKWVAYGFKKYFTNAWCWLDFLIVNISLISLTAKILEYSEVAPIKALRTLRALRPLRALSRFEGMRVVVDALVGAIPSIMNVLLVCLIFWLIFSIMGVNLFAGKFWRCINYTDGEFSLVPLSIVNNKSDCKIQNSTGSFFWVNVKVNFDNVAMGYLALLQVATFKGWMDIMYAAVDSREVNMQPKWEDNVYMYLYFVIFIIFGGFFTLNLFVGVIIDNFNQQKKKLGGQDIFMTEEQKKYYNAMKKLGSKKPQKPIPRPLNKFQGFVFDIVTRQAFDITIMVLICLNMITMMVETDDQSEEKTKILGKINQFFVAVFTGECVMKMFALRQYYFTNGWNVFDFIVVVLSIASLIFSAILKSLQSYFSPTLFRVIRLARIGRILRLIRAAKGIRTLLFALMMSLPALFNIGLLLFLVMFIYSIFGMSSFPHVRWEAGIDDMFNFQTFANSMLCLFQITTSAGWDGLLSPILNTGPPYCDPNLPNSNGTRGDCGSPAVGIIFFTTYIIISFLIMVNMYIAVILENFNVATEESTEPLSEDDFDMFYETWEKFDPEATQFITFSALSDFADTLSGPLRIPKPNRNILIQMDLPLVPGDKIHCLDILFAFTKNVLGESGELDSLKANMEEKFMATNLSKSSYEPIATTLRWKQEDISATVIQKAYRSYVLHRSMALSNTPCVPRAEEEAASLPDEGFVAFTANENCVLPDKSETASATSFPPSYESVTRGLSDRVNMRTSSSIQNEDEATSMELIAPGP

For `CC1(Cn2nc(C3(F)CC3)c(C(F)(F)F)c2C(=O)Nc2ccc(F)c(S(C)(=N)=O)c2)CC(F)(F)C1` (single isomer, unassigned) [Example 126a, 1-((3,3-Difluoro-1-methylcyclobutyl)methyl)-N-(4-fluoro-3-(S-methylsulfonimidoyl)phenyl)-3-(1-fluorocyclopropyl)-4-(trifluoromethyl)-1H-pyrazole-5-carboxamide], the IC50 – broadly, the concentration needed to halve the response being measured – is at most 100 nM. `CS(=N)(=O)c1cc(NC(=O)c2c(C(F)(F)F)c(C34CC(C3)C4)nn2CC2C[C@@H]2C(F)(F)F)ccn1` (stereo partly shown) [Example 147]: the IC50 is at most 100 nM. With `C[C@@]1(Cn2nc(C3CC3)c(C(F)(F)F)c2C(=O)Nc2ccnc([S@](C)(=N)=O)c2)CC(F)(F)C12CC2` (single isomer, unassigned) [Example 92c, 3-cyclopropyl-1-((6,6-difluoro-4-methylspiro[2.3]hexan-4-yl)methyl)-N-(2-(S-methylsulfonimidoyl)pyridin-4-yl)-4-(trifluoromethyl)-1H-pyrazole-5-carboxamide], the IC50 was at most 100 nM. Take `CN=S(C)(=O)c1cc(NC(=O)c2c(C)c(C(C)(F)F)nn2CC2(C)CC(F)(F)C2)ccn1` (single isomer, unassigned) [Example 34a, 1-((3,3-Difluoro-1-methylcyclobutyl)methyl)-3-(1,1-difluoroethyl)-N-(2-(N,S-dimethylsulfonimidoyl)pyridin-4-yl)-4-methyl-1H-pyrazole-5-carboxamide]: the IC50 was at most 100 nM. `CC1(Cn2nc(C3CC3F)c(C(F)(F)F)c2C(=O)Nc2ccnc(S(C)(=N)=O)c2)CC(F)(F)C1` (single isomer, unassigned) [Example 62b, 1-((3,3-Difluoro-1-methylcyclobutyl)methyl)-3-(2-fluorocyclopropyl)-N-(2-(S-methylsulfonimidoyl)pyridin-4-yl)-4-(trifluoromethyl)-1H-pyrazole-5-carboxamide]: the IC50 was at most 100 nM. On to `CC1(Cn2nc(C3CC3F)c(C(F)(F)F)c2C(=O)Nc2ccnc(S(C)(=N)=O)c2)CC(F)(F)C1` (racemic) [Example 62a, 1-((3,3-Difluoro-1-methylcyclobutyl)methyl)-3-(2-fluorocyclopropyl)-N-(2-(S-methylsulfonimidoyl)pyridin-4-yl)-4-(trifluoromethyl)-1H-pyrazole-5-carboxamide], for which the IC50 is at most 100 nM. Take `CC1(Cn2nc(C34CC(F)(C3)C4)c(C(F)F)c2C(=O)Nc2ccc(F)c(S(C)(=N)=O)c2)CC(F)(F)C1` (single isomer, unassigned) [Example 138a, 1-((3,3-Difluoro-1-methylcyclobutyl)methyl)-4-(difluoromethyl)-N-(4-fluoro-3-(S-methylsulfonimidoyl)phenyl)-3-(3-fluorobicyclo[1.1.1]pentan-1-yl)-1H-pyrazole-5-carboxamide]: the IC50 was at most 100 nM. The figure for `CCS(=N)(=O)c1cc(NC(=O)c2c(C(F)(F)F)c(C3CC3)nn2CC2(C)CC(F)(F)C2)ccn1` (single isomer, unassigned) [Example 48b, 3-cyclopropyl-1-((3,3-difluoro-1-methylcyclobutyl)methyl)-N-(2-(ethylsulfonimidoyl)pyridin-4-yl)-4-(trifluoromethyl)-1H-pyrazole-5-carboxamide] is at most 100 nM; for `CC1(Cn2nc(C3(F)CC3)c(C(F)F)c2C(=O)Nc2ccc(F)c(S(C)(=N)=O)c2)CC(F)(F)C1` (single isomer, unassigned) [Example 133a, 1-((3,3-Difluoro-1-methylcyclobutyl)methyl)-4-(difluoromethyl)-N-(4-fluoro-3-(S-methylsulfonimidoyl)phenyl)-3-(1-fluorocyclopropyl)-1H-pyrazole-5-carboxamide] it is at most 100 nM. In the case of `CC1(Cn2nc(C3CC3(F)F)c(C(F)(F)F)c2C(=O)Nc2ccnc(S(C)(=N)=O)c2)CC(F)(F)C1` (single isomer, unassigned) [Example 63c, 1-((3,3-Difluoro-1-methylcyclobutyl)methyl)-3-(2,2-difluorocyclopropyl)-N-(2-(S-methylsulfonimidoyl)pyridin-4-yl)-4-(trifluoromethyl)-1H-pyrazole-5-carboxamide] it was at most 100 nM.
